Measured values from ChEMBL document CHEMBL6177933, “Discovery of Sophoridine α-Aryl Propionamide Derivative ZM600 as a Novel Antihepatic Fibrosis Agent” (J Med Chem, 2024).
The source made the active and inactive calls. No cut-off for these calls is given here.

Assays:
Mus musculus [1] = experiment: Antifibrotic activity against CCL4-induced C57BL/6J mouse hepatic fibrosis model assessed as reduction in liver edema at 15 to 30 mg/kg, po administered via gavage for 4 weeks starting from 5th week of CCL4 stimulation by H and E staining based histopathological analysis; type: functional, organism-based; settings: dose 15-30 mg/kg
Mus musculus [2] = experiment: In vivo inhibition of AKT phosphorylation in CCL4-induced C57BL/6J mouse hepatic fibrosis model at 15 to 30 mg/kg, po administered via gavage for 4 weeks starting from 5th week of CCL4 stimulation by Western blot analysis; type: functional, organism-based; settings: dose 15-30 mg/kg
Mus musculus [3] = experiment: Antifibrotic activity against CCL4-induced C57BL/6J mouse hepatic fibrosis model assessed as reduction in alphaSMA expression in liver at 15 to 30 mg/kg, po administered via gavage for 4 weeks starting from 5th week of CCL4 stimulation by Western blot analysis; type: functional, organism-based; settings: dose 15-30 mg/kg
[4] = target: MAP kinase p38 (Homo sapiens) (UniProt O15264+Q15759+Q16539+P53778); experiment: Inhibition of TGFbeta1-induced p38 phosphorylation in human LX-2 cells at 5 to 20 uM preincubated for 2 hrs followed by […] stimulation and measured after 2 hrs by Western blot analysis; type: cell-based; settings: dose 5-20 µM, time 4.0 hrs
RAW264.7 [5] = experiment: Antiinflammatory activity in mouse RAW264.7 cells assessed as inhibition of LPS-induced alpha-SMA expression at 5 to 20 uM preincubated for 2 hrs followed by LPS stimulation and measured after 48 hrs by Western blot analysis; type: functional, cell-based; settings: dose 5-20 µM, time 50.0 hrs
Mus musculus [6] = experiment: In vivo inhibition of ERK1/2 phosphorylation in CCL4-induced C57BL/6J mouse hepatic fibrosis model at 15 to 30 mg/kg, po administered via gavage for 4 weeks starting from 5th week of CCL4 stimulation by Western blot analysis; type: functional, organism-based; settings: dose 15-30 mg/kg
Mus musculus [7] = experiment: Antifibrotic activity against BDL-induced C57BL/6J mouse hepatic fibrosis model assessed as improvement in histological changes at 15 to 30 mg/kg, po administered via gavage starting from 3 days post-BDL; type: functional, organism-based; settings: dose 15-30 mg/kg
RAW264.7 [8] = experiment: Inhibition of LPS-induced NFkappaB transcriptional activity in mouse RAW264.7 cells at 20 uM preincubated for 2 hrs followed by LPS stimulation and measured after 6 hrs by luciferase reporter gene assay relative to control; type: cell-based; settings: time 8.0 hrs
[9] = target: Nuclear factor NF-kappa-B complex (Homo sapiens) (UniProt Q00653+P19838+Q04206); experiment: Inhibition of LPS-induced NFkappaB activation in human LX-2 cells assessed as reduction in p65 phosphorylation preincubated for 2 hrs followed by LPS stimulation and measured after 2 hrs by Western blot analysis; type: cell-based; settings: dose 5-20 µM, time 4.0 hrs
Mus musculus [10] = experiment: In vivo inhibition of AKT phosphorylation in BDL-induced C57BL/6J mouse hepatic fibrosis model at 15 to 30 mg/kg, po administered via gavage starting from 3 days post-BDL by Western blot analysis; type: functional, organism-based; settings: dose 15-30 mg/kg
Mus musculus [11] = experiment: Antifibrotic activity against CCL4-induced C57BL/6J mouse hepatic fibrosis model assessed as reduction in collagen deposition in liver at 15 to 30 mg/kg, po administered via gavage for 4 weeks starting from 5th week of CCL4 stimulation by Sirius red and Masson's trichrome staining based assay; type: functional, organism-based; settings: dose 15-30 mg/kg
Mus musculus [12] = experiment: Antifibrotic activity against CCL4-induced C57BL/6J mouse hepatic fibrosis model assessed as reduction in alphaSMA expression in liver at 15 to 30 mg/kg, po administered via gavage for 4 weeks starting from 5th week of CCL4 stimulation by immunohistochemical staining based assay; type: functional, organism-based; settings: dose 15-30 mg/kg
RAW264.7 [13] = experiment: Antiinflammatory activity in mouse RAW264.7 cells assessed as inhibition of LPS-induced collagen 1 mRNA expression at 5 to 20 uM preincubated for 2 hrs followed by LPS stimulation and measured after 48 hrs by qRT-PCR analysis; type: functional, cell-based; settings: dose 5-20 µM, time 50.0 hrs
Mus musculus [14] = experiment: Antifibrotic activity against BDL-induced C57BL/6J mouse hepatic fibrosis model assessed as improvement in histological changes at 15 to 30 mg/kg, po administered via gavage starting from 3 days post-BDL by H and E staining based assay; type: functional, organism-based; settings: dose 15-30 mg/kg
Mus musculus [15] = experiment: Antifibrotic activity against CCL4-induced C57BL/6J mouse hepatic fibrosis model assessed as reduction in collagen 1 expression in liver at 15 to 30 mg/kg, po administered via gavage for 4 weeks starting from 5th week of CCL4 stimulation by qRT-PCR analysis; type: functional, organism-based; settings: dose 15-30 mg/kg
[16] = target: Mothers against decapentaplegic homolog 2 (Homo sapiens) (UniProt Q15796); experiment: Inhibition of TGFbeta1-induced Smad2 phosphorylation in human LX-2 cells preincubated for 2 hrs followed by […] stimulation and measured after 2 hrs by Western blot analysis; type: cell-based; settings: dose 5-20 µM, time 4.0 hrs
LX-2 [17] = experiment: Inhibition of TGFbeta1-induced AKT phosphorylation in human LX-2 cells preincubated for 2 hrs followed by […] stimulation and measured after 2 hrs by Western blot analysis; type: cell-based; settings: dose 5-20 µM, time 4.0 hrs
LX-2 [18] = experiment: Inhibition of FBS-induced cell migration in human LX-2 cells assessed as reduction in wound healing measured after 24 hrs by scratch wound assay; type: functional, cell-based; settings: dose 5-20 µM
Mus musculus [19] = experiment: Antifibrotic activity against BDL-induced C57BL/6J mouse hepatic fibrosis model assessed as reduction in collagen 1 mRNA expression in liver at 15 to 30 mg/kg, po administered via gavage starting from 3 days post-BDL by qRT-PCR analysis; type: functional, organism-based; settings: dose 15-30 mg/kg
Mus musculus [20] = experiment: Antifibrotic activity against BDL-induced C57BL/6J mouse hepatic fibrosis model assessed as reduction in alphaSMA expression in liver at 15 to 30 mg/kg, po administered via gavage starting from 3 days post-BDL by immunohistochemical staining based assay; type: functional, organism-based; settings: dose 15-30 mg/kg
RAW264.7 [21] = experiment: Antiinflammatory activity in mouse RAW264.7 cells assessed as inhibition of LPS-induced collagen 1 expression at 5 to 20 uM preincubated for 2 hrs followed by LPS stimulation and measured after 48 hrs by Western blot analysis; type: functional, cell-based; settings: dose 5-20 µM, time 50.0 hrs
Mus musculus [22] = experiment: Antifibrotic activity against CCL4-induced C57BL/6J mouse hepatic fibrosis model assessed as reduction in collagen 1 expression in liver at 15 to 30 mg/kg, po administered via gavage for 4 weeks starting from 5th week of CCL4 stimulation by Western blot analysis; type: functional, organism-based; settings: dose 15-30 mg/kg
RAW264.7 [23] = experiment: Antiinflammatory activity in mouse RAW264.7 cells assessed as inhibition of TGFbeta1-induced alpha-SMA expression at 5 to 20 uM preincubated for 2 hrs […] and measured after 48 hrs by Western blot analysis; type: functional, cell-based; settings: dose 5-20 µM, time 50.0 hrs
LX-2 [24] = experiment: Inhibition of TGFbeta1-induced ERK1/2 phosphorylation in human LX-2 cells at 5 to 20 uM preincubated for 2 hrs followed by […] stimulation and measured after 2 hrs by Western blot analysis; type: cell-based; settings: dose 5-20 µM, time 4.0 hrs
RAW264.7 [25] = experiment: Inhibition of LPS-induced NFkappaB transcriptional activity in mouse RAW264.7 cells at 10 uM preincubated for 2 hrs followed by LPS stimulation and measured after 6 hrs by luciferase reporter gene assay relative to control; type: cell-based; settings: time 8.0 hrs
Mus musculus [26] = experiment: Antifibrotic activity against CCL4-induced C57BL/6J mouse hepatic fibrosis model assessed as reduction in rough surface of liver at 15 to 30 mg/kg, po administered via gavage for 4 weeks starting from 5th week of CCL4 stimulation; type: functional, organism-based; settings: dose 15-30 mg/kg

Mothers against decapentaplegic homolog 2 (Homo sapiens), sequence (Q15796 whole entry): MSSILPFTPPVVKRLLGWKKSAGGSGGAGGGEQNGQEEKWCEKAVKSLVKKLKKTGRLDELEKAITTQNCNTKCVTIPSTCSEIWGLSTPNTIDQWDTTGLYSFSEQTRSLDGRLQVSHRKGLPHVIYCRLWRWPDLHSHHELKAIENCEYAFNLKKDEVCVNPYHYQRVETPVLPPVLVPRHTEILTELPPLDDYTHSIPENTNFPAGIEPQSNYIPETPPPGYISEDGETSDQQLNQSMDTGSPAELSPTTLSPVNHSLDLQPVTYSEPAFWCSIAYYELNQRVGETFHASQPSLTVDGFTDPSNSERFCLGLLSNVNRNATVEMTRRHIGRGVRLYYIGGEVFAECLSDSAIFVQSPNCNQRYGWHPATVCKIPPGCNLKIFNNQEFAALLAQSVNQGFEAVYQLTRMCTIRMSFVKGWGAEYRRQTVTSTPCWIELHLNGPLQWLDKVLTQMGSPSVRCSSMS
Nuclear factor NF-kappa-B complex (Homo sapiens), sequence (P19838 whole entry, looked up): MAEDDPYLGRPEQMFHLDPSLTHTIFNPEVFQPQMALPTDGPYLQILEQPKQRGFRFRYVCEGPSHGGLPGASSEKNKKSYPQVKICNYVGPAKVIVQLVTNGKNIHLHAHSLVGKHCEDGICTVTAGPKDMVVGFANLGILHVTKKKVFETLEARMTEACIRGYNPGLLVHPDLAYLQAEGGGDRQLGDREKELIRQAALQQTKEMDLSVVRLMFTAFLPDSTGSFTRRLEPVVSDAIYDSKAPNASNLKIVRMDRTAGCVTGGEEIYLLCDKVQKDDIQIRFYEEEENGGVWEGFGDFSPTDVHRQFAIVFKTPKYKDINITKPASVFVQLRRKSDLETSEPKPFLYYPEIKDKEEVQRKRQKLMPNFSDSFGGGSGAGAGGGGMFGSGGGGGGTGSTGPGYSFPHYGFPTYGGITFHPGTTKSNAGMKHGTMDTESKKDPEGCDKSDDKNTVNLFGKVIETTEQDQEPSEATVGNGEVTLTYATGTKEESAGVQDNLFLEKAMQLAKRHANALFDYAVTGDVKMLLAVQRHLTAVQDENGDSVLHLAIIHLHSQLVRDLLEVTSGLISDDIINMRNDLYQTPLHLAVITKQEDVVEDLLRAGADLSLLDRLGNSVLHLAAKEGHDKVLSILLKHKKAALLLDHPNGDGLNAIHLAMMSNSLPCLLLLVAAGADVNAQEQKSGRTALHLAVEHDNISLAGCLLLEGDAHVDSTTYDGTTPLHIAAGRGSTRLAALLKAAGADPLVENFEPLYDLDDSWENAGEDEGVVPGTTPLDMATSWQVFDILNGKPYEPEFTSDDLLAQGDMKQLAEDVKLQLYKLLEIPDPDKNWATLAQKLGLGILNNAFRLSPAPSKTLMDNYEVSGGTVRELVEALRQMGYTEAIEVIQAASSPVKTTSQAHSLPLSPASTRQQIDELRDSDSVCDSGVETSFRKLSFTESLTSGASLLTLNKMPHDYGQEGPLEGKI
Nuclear factor NF-kappa-B complex (Homo sapiens), sequence (Q00653 whole entry, looked up): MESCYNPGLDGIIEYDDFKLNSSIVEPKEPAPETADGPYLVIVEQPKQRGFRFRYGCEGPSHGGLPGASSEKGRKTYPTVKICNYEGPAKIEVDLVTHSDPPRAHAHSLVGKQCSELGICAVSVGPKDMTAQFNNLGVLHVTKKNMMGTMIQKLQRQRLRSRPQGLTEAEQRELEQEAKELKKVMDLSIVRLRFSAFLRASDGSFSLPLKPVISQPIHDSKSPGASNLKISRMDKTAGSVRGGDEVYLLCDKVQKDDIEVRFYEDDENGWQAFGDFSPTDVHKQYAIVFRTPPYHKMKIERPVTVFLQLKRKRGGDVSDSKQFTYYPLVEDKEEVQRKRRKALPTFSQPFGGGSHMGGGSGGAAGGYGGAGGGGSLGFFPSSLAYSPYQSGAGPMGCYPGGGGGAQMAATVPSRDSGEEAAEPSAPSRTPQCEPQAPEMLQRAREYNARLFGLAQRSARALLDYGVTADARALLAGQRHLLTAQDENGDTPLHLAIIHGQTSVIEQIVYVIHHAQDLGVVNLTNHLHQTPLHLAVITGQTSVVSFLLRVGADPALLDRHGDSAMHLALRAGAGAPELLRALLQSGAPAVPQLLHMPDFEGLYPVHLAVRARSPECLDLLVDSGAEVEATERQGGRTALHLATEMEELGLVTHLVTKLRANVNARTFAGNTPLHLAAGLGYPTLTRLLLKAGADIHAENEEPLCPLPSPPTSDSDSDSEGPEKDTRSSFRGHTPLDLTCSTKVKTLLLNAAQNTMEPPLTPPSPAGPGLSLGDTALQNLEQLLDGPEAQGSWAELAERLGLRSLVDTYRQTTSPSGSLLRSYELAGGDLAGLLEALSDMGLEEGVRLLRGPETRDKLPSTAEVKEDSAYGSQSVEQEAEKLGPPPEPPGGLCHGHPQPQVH
Nuclear factor NF-kappa-B complex (Homo sapiens), sequence (Q04206 whole entry, looked up): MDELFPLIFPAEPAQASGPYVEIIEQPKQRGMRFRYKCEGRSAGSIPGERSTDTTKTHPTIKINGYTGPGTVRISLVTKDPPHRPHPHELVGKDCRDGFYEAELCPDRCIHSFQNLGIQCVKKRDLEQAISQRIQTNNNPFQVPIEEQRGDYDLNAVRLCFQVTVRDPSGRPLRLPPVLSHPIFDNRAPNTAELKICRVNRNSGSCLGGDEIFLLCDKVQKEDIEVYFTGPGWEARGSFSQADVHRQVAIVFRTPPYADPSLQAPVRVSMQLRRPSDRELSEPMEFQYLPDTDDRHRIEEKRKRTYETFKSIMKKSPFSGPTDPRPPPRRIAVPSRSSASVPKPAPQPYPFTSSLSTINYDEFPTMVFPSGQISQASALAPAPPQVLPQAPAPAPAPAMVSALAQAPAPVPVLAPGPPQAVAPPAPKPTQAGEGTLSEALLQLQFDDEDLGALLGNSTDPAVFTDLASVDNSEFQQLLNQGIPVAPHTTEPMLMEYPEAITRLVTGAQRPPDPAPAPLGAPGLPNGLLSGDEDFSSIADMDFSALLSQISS

With `COC(=O)CCC[C@@H]1[C@H]2CCCN3CCC[C@H](CN1C(=O)C(C)c1ccc(-c4ccccc4)c(F)c1)[C@@H]23` (stereo partly specified) the Activity (Mus musculus [1]) was “Active”, the inhibition (Mus musculus [2]) was “Active” and the Activity (Mus musculus [3]) was “Active”. The inhibition [4] was “inactive”, the inhibition (RAW264.7 [5]) was “Active” and the inhibition (Mus musculus [6]) was “inactive”. The Activity (Mus musculus [7]) was “Active”, the fold change (FC) (RAW264.7 [8]) was 0.59 and the inhibition [9] was “Dose-dependent-effect”. The inhibition (Mus musculus [10]) was “Active”, the Activity (Mus musculus [11]) was “Active; Dramatically Decreased The Collagen Deposition” and the Activity (Mus musculus [12]) was “Active”. The inhibition (RAW264.7 [13]) was “Active”, the Activity (Mus musculus [14]) was “Active” and the Activity (Mus musculus [15]) was “Active”. For the same compound, the inhibition [16] was “Dose-dependent-effect”, the inhibition (LX-2 [17]) was “Dose-dependent-effect” and the inhibition (LX-2 [18]) was “Dose-dependent-effect”. The Activity (Mus musculus [19]) was “Active”, the Activity (Mus musculus [20]) was “Active” and the inhibition (RAW264.7 [21]) was “Active”. The Activity (Mus musculus [22]) was “Active”, the inhibition (RAW264.7 [23]) was “Active” and the inhibition (LX-2 [24]) was “inactive”. For the same compound, the fold change (FC) (RAW264.7 [25]) was 0.71 and the Activity (Mus musculus [26]) was “Active; Significant Alleviation Observed”.
